Data taken from article PMC10877564, “Activity of Gut-Derived Nisin-like Lantibiotics against Human Gut Pathogens and Commensals” (ACS Chemical Biology, 2024).
No end group written: not given here.

What was measured:
[1] = Liposome permeabilization assay, liposomes without lipid II; format: biochemical; conditions: 375 nM lantibiotic; DOPC, 50 µM phospholipid; pyranine fluorescence, 30 min; three replicates; Figure S7
Protocol: (§1) To further investigate the mechanisms of action of these nisin-like lantibiotics, we performed liposome permeabilization assays using liposomes with or without lipid II (Figure S7).
(§2) Liposome Permeabilization Assay
(§3) To prepare pyranine encapsulated liposomes, DOPC (25 mg/mL in CHCl3, purchased from Avanti) was deposited into a vial and mixed with lipid II (dissolved in 2:1 CHCl3: MeOH, prepared chemoenzymatically).6 The solvent was removed using a stream of N2 leaving a thin film. Residual solvent was removed by storing it overnight in a vacuum desiccator. The film was rehydrated in buffer (5 mM Tricine, 5 mM MES, 5 mM NaCl, 1 mM pyranine pH = 6.0) and suspended with vortexing. The suspension was subjected to freeze-thaw three times before extrusion through a […] polycarbonate filter (21 passes). Excess pyranine was removed by passing the liposome solution through a Sephadex G-50 column previously equilibrated with buffer (5 mM Tricine, 5 mM MES, 5 mM NaCl, pH = 6.0). The eluted liposome solution containing the highest concentration of encapsulated pyranine (as determined visually with a UV lamp) was immediately placed on ice. Phospholipid concentration was determined by NMR as described previously.7 To measure liposome permeabilization, to a 96 well black polystyrene plate was added buffer (5 mM Tricine, 5 mM MES, 5 mM NaCl, pH = 8.0; 97 µL) and liposome solution (3 µL; 50 µM phospholipid concentration during assay). The wells were allowed to equilibrate for 8 min at room temperature then antibiotic was added. The antibiotic concentration in each well was 375 nM.
(§4) Pyranine fluorescence was monitored for 30 min then Triton X-100 was added to a final concentration of 0.1% and pyranine fluorescence was monitored for an additional 5 min. The pyranine fluorescence signal was max-min normalized. […]
(§5) Fig. S7 Liposome permeabilization assays of nisin-like lantibiotics. (A) Scheme of liposome […]
(§6) low fluorescence. Fluorescence increases upon liposome permeabilization and pH increase . (B) Fraction of liposomes permeabilized by lantibiotics (375 nM). Liposomes were composed of DOPC with or without 0.1 mol% lipid II. Error bars represent the standard of deviation of three […]
(§7) (1 picture or pasted object on this page, not shown here)

[2] = test system: Coprococcus eutactus MSK.18.32; experiment: MIC assay, anaerobic broth dilution; format: cell-based; conditions: SAR study blauticin versus nisin O, Figure 4
Source text: (§8) Antibiotic treatment may result in collateral damage to commensal bacteria in the human microbiome, leading to dysbiosis and susceptibility to various diseases.[44] How lantibiotics impact Gram-positive commensals from the human gut has remained unclear. Therefore, we performed antimicrobial activity tests of these lantibiotics against selected Gram-positive human gut commensals, most of which belong to the Lachnospiraceae family, one of the most abundant bacterial families in the human gut.[27] In general, human gut commensals were more susceptible to the set of investigated lantibiotics compared to pathogens (Figure 3).
(§9) Elution Buffer (4 M guanidine hydrochloride, 20 mM Tris HCl, pH 7.5 at 25 °C, 100 mM NaCl, 1 M imidazole). Peptides eluted from the Ni resin were concentrated and desalted using 3 kDa Amicon filters (Millipore). For leader peptide removal, the peptide (1:20 trypsin to peptide) was incubated with the trypsin protease in 50 mM Tris-HCl, pH 8 overnight at 37 °C. Lastly, the core peptides were further purified with HPLC using an Agilent 1200 instrument (Agilent) as specified in general methods. About 1.5 mg recombinant peptide was obtained after HPLC purification per […]
(§10) All MIC assays were performed under anaerobic condition. […] Lantibiotics were dissolved in DPBS, and concentrations were determined by BCA assay (Pierce) according to the manufacturer’s protocol. […]

[3] = test system: panel of Gram-positive human pathogens (VRE, MRSA, MRSE, L. monocytogenes, C. difficile); experiment: MIC assay against the panel of Gram-positive human pathogens; format: cell-based; conditions: pathogen panel, Figure 3A-E; anaerobic
Source text: Next, we set out to test the antimicrobial activities of these purified lantibiotics against a panel of Gram-positive bacteria that are representatives of some of the most prevalent human pathogens: VRE, Methicillin-resistant S. aureus USA300 (MRSA), Methicillin-resistant Staphylococcus epidermidis SK135 (MRSE), Listeria monocytogenes 10403S, and Clostridioides difficile VPI10463. We examined the growth of bacteria in a 96-well plate under a concentration gradient of lantibiotics under anaerobic conditions (Figure S2B).
as §9
Purification of blauticin from Blautia producta SCSK
Stationary anaerobic culture of BPSCSK was inoculated 1:100 to 1 L BHIS. Culture was incubated on a heating plate at 37 °C with 220 rpm stirring for 2 days in an anaerobic chamber. Bacteria were pelleted with 15,000 x g centrifugation for 15 min. The supernatant was acidified with acetic acid to pH 5.5 and filtered through a 0.22 um filter. Filtered supernatant was loaded onto a HiTrap SP HP column using an AKTA Pure FPLC, which was eluted sequentially with 3 CV of distilled water, 200 mM NaCl, 400 mM NaCl, 600 mM NaCl, 800 mM NaCl, and 1 M NaCl. The 800 mM NaCl eluate was concentrated with a 3 kDa Amicon filter, followed by dialyzation with DPBS using a 3 kDa Amicon filter. Purification of blauticin was confirmed by SDS-PAGE, VRE inhibition in vitro assay, and MALDI-TOF MS. […]
(§11) For broth cultures, isolates were grown in pre-reduced BHI supplemented with 5 g/L yeast extract (Difco, BD) and 0.1% L-cysteine under anaerobic condition.
(§12) Minimal Inhibition Concentration (MIC) assay
(§13) All MIC assays were performed under anaerobic condition. Stationary bacterial culture in BHIS (BHI supplemented with 5 g/L yeast extract and 0.1% L-cysteine) were inoculated 1:100 to wells containing 200 µL BHIS in U-bottom 96-well plates. Lantibiotics were dissolved in DPBS, and concentrations were determined by BCA assay (Pierce) according to the manufacturer’s protocol.
Lantibiotic stock solutions were added to wells to reach desired final concentration, with 3-fold serial dilution across rows to create concentration gradients. Bacteria-inoculated wells without lantibiotics served as control. […]

[4] = Liposome permeabilization assay, liposomes with lipid II; format: biochemical; conditions: 375 nM lantibiotic; DOPC with 0.1 mol% lipid II, 50 µM phospholipid; pyranine fluorescence, 30 min, room temperature; three replicates; Figure S7B
Protocol: as §1, §2, §3, §4, §5, §6, §7

C. comes MSK.11.23 = experiment: MIC assay, anaerobic broth dilution; format: cell-based, Coprococcus comes; conditions: Figure 3; anaerobic MIC assay
Source text: as §8, with “3). […]” for “3).”
Isolation of human gut commensal bacteria
Isolation and growth of commensal bacteria was done as previously reported.5 Briefly, fresh donor fecal samples were transferred into an anaerobic chamber (Coy Labs) within 1 h of collection. The anaerobic chamber was maintained using a gas mix consisting of 5% hydrogen, 5% carbon dioxide and 90% nitrogen, and hydrogen was maintained at ~3.0% using an anaerobic gas infuser. Fecal samples were resuspended in pre-reduced PBS and plated on Columbia blood agar or brain-heart infusion (BHI – Difco, BD) agar plates in three serial 10-fold dilutions and incubated at 37 °C for 48 – 96 h. Isolated colonies were re-streaked for purity onto Columbia blood agar and frozen in pre-reduced 10% glycerol in PBS.
as §11, §12, §13
Lantibiotic stock solutions were added to wells to reach desired final concentration, with 3-fold serial dilution across rows to create concentration gradients. Bacteria-inoculated wells without lantibiotics served as control. Plates were incubated at 37 °C for 48 h before being taken out of the anaerobic chamber for centrifugation. Plates were imaged with an iBright 1500 imager […]
pellets than those without lantibiotics were identified as MIC.

[5] = test system: selected Gram-positive human gut commensals; experiment: MIC assay against the panel of Gram-positive human gut commensals; format: cell-based; conditions: commensal panel, Figure 3F-M; anaerobic
Source text: as §8, §9, §10

Row | Substance | permeabilization of liposomes without lipid II compared to liposomes with lipid II (in words) [1] | inhibition (MIC) of C. eutactus, comparison in words [2] | inhibitory activity against pathogens based on MIC (ranking in words) [3] | permeabilization of lipid II-containing liposomes (in words) [4] | sensitivity of C. comes MSK.11.23 to the lantibiotic (in words) (C. comes MSK.11.23) | antimicrobial activity against human gut commensals (ranking in words) [5]
1 | MAKFDDFDLDVTKTAAGEGGVEPRITSKSLCTPGCVTGILMTCPVQTATCGCQITGK (also: bicyclic or more (positions not given here)) [blauticin, class I lantibiotic of Blautia producta SCSK, heterologously produced in E. coli in mixed dehydration states] | decreased permeabilization activities | lower MIC than nisin O | intermediate activities | strongly induced permeabilization |  | 
2 | MAKFDDFDLDVTKTAAQGGIEPKYKSKSVCTPGCPTGILMTCPLKTATCGCHITGK (also: bicyclic or more (positions not given here)) [Lan-Df, novel nisin-like class I lantibiotic from Dorea formicigenerans, close homologue of nisin O] | decreased permeabilization activities |  | strongest inhibitory activities | strongly induced permeabilization | relatively resistant | generally more effective in growth inhibition
3 | nisin O | decreased permeabilization activities |  | nisin A and Lan-Df had the strongest inhibitory activities against pathogens based on their MIC, followed by nisin O | strongly induced permeabilization | relatively resistant | 
